In ChEMBL document CHEMBL1201862, “PubChem BioAssay data set” (2004):
The source made the active and inactive calls.

Experiments:
[1] = molecular target: T1, Corticotropin-releasing factor receptor 2/Corticotropin-releasing factor-binding protein (Homo sapiens, UniProt P24387+Q13324); experiment: Dose Response confirmation of uHTS hits for small molecule antagonists of the CRF-binding protein and CRF-R2 receptor complex.; type: functional; details: read-out: IC50_Mean
T1 sequence (Q13324 whole entry): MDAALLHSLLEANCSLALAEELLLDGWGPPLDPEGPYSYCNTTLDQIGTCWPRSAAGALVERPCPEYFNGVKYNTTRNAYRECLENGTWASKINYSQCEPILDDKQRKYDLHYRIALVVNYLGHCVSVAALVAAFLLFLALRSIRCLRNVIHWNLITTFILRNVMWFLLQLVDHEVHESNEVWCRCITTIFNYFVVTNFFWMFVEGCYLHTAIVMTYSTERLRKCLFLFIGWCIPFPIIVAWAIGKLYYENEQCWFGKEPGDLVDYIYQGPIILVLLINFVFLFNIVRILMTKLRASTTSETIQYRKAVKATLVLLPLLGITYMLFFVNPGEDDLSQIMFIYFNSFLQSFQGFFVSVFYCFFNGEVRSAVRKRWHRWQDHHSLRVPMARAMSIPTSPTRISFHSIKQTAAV
T1 sequence (P24387 whole entry): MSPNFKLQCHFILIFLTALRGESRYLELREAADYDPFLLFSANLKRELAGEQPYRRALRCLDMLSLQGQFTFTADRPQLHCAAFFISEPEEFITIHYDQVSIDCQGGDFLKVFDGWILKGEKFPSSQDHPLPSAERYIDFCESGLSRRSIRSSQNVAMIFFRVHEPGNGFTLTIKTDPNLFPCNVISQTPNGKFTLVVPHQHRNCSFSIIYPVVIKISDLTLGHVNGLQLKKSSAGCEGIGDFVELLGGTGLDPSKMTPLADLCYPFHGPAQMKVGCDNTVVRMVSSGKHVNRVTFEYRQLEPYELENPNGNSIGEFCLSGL

Protein skinhead-1 = molecular target: T2, Protein skinhead-1 (Caenorhabditis elegans, UniProt P34707); type: functional
T2 sequence (P34707 whole entry): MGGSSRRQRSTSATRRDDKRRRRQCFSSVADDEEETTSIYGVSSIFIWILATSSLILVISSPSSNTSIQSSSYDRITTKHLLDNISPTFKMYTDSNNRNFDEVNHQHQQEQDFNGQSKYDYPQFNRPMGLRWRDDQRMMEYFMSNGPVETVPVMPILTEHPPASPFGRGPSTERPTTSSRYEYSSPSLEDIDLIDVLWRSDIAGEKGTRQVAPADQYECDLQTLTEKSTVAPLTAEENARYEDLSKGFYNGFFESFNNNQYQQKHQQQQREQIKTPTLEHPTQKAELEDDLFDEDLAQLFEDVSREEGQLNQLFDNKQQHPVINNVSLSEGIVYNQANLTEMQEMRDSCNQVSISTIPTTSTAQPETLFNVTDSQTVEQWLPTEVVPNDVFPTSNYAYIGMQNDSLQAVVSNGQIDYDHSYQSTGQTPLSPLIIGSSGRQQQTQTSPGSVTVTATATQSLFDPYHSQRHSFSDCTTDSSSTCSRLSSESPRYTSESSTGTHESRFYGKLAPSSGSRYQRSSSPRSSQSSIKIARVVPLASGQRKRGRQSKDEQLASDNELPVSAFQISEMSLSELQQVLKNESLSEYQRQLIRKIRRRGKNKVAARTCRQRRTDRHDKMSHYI

[2] = molecular target: T1, Corticotropin-releasing factor receptor 2/Corticotropin-releasing factor-binding protein; experiment: activators of CRF receptor 2 with binding protein – uHTS hits, confirmation (AID 602473); type: functional; details: read-out: EC50_Mean
[3] = molecular target: T3, Heat shock factor protein 1 (Mus musculus, UniProt P38532); experiment: HSF1 potentiators in luciferase reporter cells, confirmation, cell-based, NIH3T3, luminescence, dose retest (AID 435004); type: functional;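 also: stress induced by proteasome inhibitor MG132 added 30 min after compound; luciferase reporter driven by HSF1 response element in NIH3T3 cells; actives raise luminescence as potentiators of the MG132 stress response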
T3 sequence (P38532 whole entry): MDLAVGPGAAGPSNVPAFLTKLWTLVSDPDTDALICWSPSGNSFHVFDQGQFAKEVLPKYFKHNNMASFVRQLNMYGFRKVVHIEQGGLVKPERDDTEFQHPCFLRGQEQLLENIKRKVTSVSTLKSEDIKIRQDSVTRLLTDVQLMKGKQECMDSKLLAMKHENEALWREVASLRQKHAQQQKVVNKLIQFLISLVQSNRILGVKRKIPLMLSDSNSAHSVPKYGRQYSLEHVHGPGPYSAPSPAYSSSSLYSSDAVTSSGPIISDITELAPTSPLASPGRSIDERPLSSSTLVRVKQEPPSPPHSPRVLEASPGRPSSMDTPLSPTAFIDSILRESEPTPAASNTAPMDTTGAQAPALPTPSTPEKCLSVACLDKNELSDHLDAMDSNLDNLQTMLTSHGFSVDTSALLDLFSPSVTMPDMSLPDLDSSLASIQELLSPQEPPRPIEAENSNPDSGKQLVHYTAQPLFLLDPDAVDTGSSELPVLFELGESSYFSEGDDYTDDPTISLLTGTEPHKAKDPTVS

Cytochrome P450 1A2 = molecular target: T4, Cytochrome P450 1A2 (Homo sapiens, UniProt P05177);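 also: PubChem cytochrome P450 panel assay, CYP1A2 panel member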
T4 sequence (P05177 whole entry): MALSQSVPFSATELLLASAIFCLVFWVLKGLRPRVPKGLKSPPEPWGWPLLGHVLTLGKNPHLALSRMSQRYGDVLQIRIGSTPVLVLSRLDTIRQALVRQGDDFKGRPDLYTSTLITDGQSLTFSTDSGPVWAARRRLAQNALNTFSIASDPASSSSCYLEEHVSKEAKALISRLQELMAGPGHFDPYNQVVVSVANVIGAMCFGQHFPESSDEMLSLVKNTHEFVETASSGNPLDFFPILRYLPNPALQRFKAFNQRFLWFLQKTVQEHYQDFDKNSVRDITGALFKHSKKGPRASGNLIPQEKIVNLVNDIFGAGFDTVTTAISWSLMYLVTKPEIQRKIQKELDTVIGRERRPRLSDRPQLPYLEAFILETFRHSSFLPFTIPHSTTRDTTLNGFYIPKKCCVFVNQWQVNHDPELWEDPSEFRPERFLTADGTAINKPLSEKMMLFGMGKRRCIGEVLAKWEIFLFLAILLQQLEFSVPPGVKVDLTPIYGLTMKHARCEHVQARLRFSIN

Cytochrome P450 3A4 = Cytochrome P450 3A4 (Homo sapiens, UniProt P08684);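 also: CYP3A4 tested as one member of a cytochrome P450 panel screen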
Cytochrome P450 2C9 = Cytochrome P450 2C9 (Homo sapiens, UniProt P11712)
[4] = Luminescence Cell-Based Dose Response HTS to Identify Activators of Luciferase Translation or Activity in H4 […] Cells. [Related pubchem assays: 1829 (Project Summary), 1814 (Primary HTS)]; type: functional
H4 = experiment: Luminescence Cell-Based Dose Response HTS to Identify Activators of 5'UTR Stem-Loop Driven Prion Protein mRNA Translation in H4 Neuroglioblastoma Cells. [Related pubchem assays: 1829 (Project Summary), 1814 (Primary HTS)]; type: functional; details: Homo sapiens
[5] = cytotoxicity toward NIH3T3 fibroblasts, dose response, counter-screen, cell-based, ATP luminescence, mouse fibroblasts (AID 2010); type: functional;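 also: cells exposed to compound for about 90 hours before reading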
[6] = inhibitors of intracellular T. cruzi replication, confirmation, NIH3T3 host cells, beta-gal luminescence (AID 2044); type: functional, cell-based;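 also: intracellular parasites grown in NIH/3T3 mouse fibroblasts as host cells; luminescent beta-galactosidase reporter signal from transgenic T. cruzi replicating inside host cells; inhibitors lower the luminescence signal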

Cytochrome P450 3A4, sequence (P08684 whole entry): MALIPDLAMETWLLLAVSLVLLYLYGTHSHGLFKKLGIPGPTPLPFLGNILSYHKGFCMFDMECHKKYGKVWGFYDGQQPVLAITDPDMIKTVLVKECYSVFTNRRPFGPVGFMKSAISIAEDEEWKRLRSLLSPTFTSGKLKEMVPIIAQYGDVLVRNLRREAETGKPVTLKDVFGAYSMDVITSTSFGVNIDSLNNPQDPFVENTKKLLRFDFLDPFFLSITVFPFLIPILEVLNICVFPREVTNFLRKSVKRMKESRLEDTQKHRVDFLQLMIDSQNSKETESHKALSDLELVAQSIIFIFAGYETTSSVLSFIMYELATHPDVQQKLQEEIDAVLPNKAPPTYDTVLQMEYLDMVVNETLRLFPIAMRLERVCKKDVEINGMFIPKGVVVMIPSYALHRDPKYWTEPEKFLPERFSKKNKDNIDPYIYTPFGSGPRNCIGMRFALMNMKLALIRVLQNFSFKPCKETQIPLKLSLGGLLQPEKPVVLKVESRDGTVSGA
Cytochrome P450 2C9, sequence (P11712 whole entry): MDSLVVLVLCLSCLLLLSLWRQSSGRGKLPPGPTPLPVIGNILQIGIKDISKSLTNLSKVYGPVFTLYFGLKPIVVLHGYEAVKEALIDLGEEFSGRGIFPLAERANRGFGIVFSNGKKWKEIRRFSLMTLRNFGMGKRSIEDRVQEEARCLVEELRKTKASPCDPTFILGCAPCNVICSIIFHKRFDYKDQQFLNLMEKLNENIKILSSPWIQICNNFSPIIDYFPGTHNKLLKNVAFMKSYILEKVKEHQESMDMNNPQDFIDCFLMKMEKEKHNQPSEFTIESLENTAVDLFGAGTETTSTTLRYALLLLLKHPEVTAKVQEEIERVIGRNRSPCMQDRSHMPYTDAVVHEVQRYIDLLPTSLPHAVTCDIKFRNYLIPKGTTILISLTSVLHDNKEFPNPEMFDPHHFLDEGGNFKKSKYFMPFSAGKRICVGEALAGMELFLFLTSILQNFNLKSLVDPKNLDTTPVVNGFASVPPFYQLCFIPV

CCc1nc(NCCC(C)C)c(C#N)c2c1CCCC2
IC50 [1]: > 47.1 µM (inactive) | IC50 (Protein skinhead-1): > 100 µM (inactive) | EC50 [2]: > 53 µM (inactive)

Clc1ccc(-c2nnc(-c3ccccc3)o2)cn1
IC50 (Protein skinhead-1): 39.8 µM (active)

COc1ccc(/C=C/C(=O)N(C(C)C)C(C)C)cc1Br
EC50 [3]: 200 µM (active)

O=C1/C(=C\c2cccs2)SC(=S)N1C1CCS(=O)(=O)C1 (centres undefined)
IC50 (Protein skinhead-1): > 100 µM (inactive)

COc1ccc(-c2nc3cnc(N4CCNCC4)nc3n(C)c2=O)cc1
AC50 (Cytochrome P450 1A2): 12.6 µM (inconclusive) | AC50 (Cytochrome P450 3A4): 31.6 µM (inconclusive)

COc1cccc(-c2ccc3ncnc(N4CCNCC4)c3c2)c1
AC50 (Cytochrome P450 3A4): 10 µM (inconclusive)

CN(C)c1ccc(C(CNC(=O)c2ccccc2)c2c[nH]c3ccccc23)cc1 (centres undefined)
EC50 [3]: > 260 µM (inactive)

CC(NC(=O)/C=C/c1ccco1)c1nc2ccccc2n1Cc1cccc(Cl)c1 (centres undefined)
EC50 [3]: > 260 µM (inactive)

c1ccc(N2CCN(c3cnc4ccccc4n3)CC2)cc1
IC50 (Protein skinhead-1): 76.2 µM (inactive)

CC(=O)NCCNc1nc(-c2ccccc2Cl)nc2ccccc12
AC50 (Cytochrome P450 3A4): 5.01 µM (inconclusive)

CC(=O)N1CSCC1C(=O)NNS(=O)(=O)c1cccc(C(F)(F)F)c1 (centres undefined)
EC50 [3]: > 260 µM (inactive)

N[C@@H](CC1=CS(=O)(=O)c2ccc(Cl)cc21)C(=O)O
AC50 (Cytochrome P450 2C9): 6.31 µM (inconclusive) | AC50 (Cytochrome P450 1A2): 0.398 µM (inconclusive) | AC50 (Cytochrome P450 3A4): 5.01 µM (inconclusive)

Cc1ccccc1OCc1nnc2c3cnn(C)c3ncn12
EC50 [4]: 16.8 µM (active) | EC50 (H4): 38.8 µM (active)

CC(=O)N1CCC[C@@]2(CCN(Cc3nccs3)C2)C1
AC50 (Cytochrome P450 3A4): 31.6 µM (inconclusive)

COC(=O)c1[nH]c2ccccc2c1NC(=O)C(C)N1CCOCC1 (centres undefined)
IC50 (Protein skinhead-1): > 100 µM (inactive)

COc1ccc(Nc2oc(-c3ccc(F)cc3)nc2C#N)cc1
EC50 [4]: 15.1 µM (active) | EC50 (H4): > 120 µM (not active)

CSc1ccc(S(=O)(=O)N2CCC(C(=O)Nc3ccccc3C(F)(F)F)CC2)cc1
IC50 (Protein skinhead-1): > 100 µM (inactive)

CCn1cc(C(=O)OCC(=O)NCc2ccc3c(c2)OCO3)c(=O)c2ccc(C)nc21
IC50 (Protein skinhead-1): > 100 µM (inactive)

Cc1cc(C)n(-c2nc3ccccc3n3cnnc23)n1
IC50 (Protein skinhead-1): > 100 µM (inactive)

Fc1ccc(-c2cnn3c(-c4ccncc4)ccnc23)cc1
IC50 (Protein skinhead-1): > 100 µM (inactive)

COc1cc(-c2cn(S(=O)(=O)c3cccc4nsnc34)nc2N)cc(OC)c1OC
EC50 [3]: > 260 µM (inactive)

Cc1csc(NC(=O)CNS(=O)(=O)c2cccs2)n1
AC50 (Cytochrome P450 3A4): 17.8 µM (inconclusive)

COc1cccc(CNCc2ccc(SC)cc2)c1OC
AC50 (Cytochrome P450 3A4): 11.2 µM (inconclusive)

O=C(Nc1ccccc1C(=O)N1CCCC1)c1ncoc1-c1cccc(Cl)c1
EC50 [3]: > 260 µM (inactive)

O=C(CN1CCN(S(=O)(=O)N2CCCCC2)CC1)Nc1cc(Cl)cc(Cl)c1
IC50 (Protein skinhead-1): > 100 µM (inactive)

N#CC(c1ccccn1)(c1ncc(C(F)(F)F)cc1Cl)N1CCOCC1 (centres undefined)
AC50 (Cytochrome P450 3A4): 35.5 µM (inconclusive)

N#C/C(=C(\O)C(F)(F)F)c1nnc2n1CCCCC2
EC50 [3]: > 260 µM (inactive)

COc1cc(/C=N/NC(=O)c2ccncc2)ccc1OC(=O)c1ccc([N+](=O)[O-])cc1
AC50 (Cytochrome P450 2C9): 3.55 µM (inconclusive) | AC50 (Cytochrome P450 3A4): 0.891 µM (inconclusive)

CO/C(O)=C1/C(C)=NC2=C(C(=O)CC(C)(C)C2)C1c1cn(Cc2ccc(Br)cc2)nc1-c1ccccc1 (centres undefined)
EC50 [3]: > 260 µM (inactive)

COc1ccc(/C(C)=N/NC(=S)NCc2ccco2)cc1
EC50 [3]: > 260 µM (inactive)

CCOC(=O)C1=C(Nc2ccccc2)CC(C)(O)C(C(=O)OCC)C1c1ccc(Cl)cc1 (centres undefined)
IC50 (Protein skinhead-1): > 100 µM (inactive)

C[C@@H](N)Cn1ccc2cc(F)c(Cl)cc21
AC50 (Cytochrome P450 3A4): 39.8 µM (inconclusive)

N#C/C(=C\c1ccc(Sc2ccccc2)o1)c1nc2ccccc2[nH]1
EC50 [4]: 0.561 µM (active) | EC50 [5]: > 60 µM (inconclusive) | EC50 [6]: 1.42 µM (active) | EC50 (H4): 23 µM (active)
